Experimental data reported in patent publication US11655235B2, “Pyrrolidine and piperidine compounds” (YUHAN CORPORATION, priority 2019, dated 2023).

Legend:
Type in all cases: biochemical
recombinant human PREP = target: T1, recombinant human PREP (Homo sapiens, UniProt P48147); assay: PREP inhibition, fluorogenic substrate Z-Gly-Pro-AMC; conditions: Inhibitory Activity (IC50, nM) PREP, recombinant human PREP
T1 construct: purchased R&D System
T1 sequence (P48147 1-710): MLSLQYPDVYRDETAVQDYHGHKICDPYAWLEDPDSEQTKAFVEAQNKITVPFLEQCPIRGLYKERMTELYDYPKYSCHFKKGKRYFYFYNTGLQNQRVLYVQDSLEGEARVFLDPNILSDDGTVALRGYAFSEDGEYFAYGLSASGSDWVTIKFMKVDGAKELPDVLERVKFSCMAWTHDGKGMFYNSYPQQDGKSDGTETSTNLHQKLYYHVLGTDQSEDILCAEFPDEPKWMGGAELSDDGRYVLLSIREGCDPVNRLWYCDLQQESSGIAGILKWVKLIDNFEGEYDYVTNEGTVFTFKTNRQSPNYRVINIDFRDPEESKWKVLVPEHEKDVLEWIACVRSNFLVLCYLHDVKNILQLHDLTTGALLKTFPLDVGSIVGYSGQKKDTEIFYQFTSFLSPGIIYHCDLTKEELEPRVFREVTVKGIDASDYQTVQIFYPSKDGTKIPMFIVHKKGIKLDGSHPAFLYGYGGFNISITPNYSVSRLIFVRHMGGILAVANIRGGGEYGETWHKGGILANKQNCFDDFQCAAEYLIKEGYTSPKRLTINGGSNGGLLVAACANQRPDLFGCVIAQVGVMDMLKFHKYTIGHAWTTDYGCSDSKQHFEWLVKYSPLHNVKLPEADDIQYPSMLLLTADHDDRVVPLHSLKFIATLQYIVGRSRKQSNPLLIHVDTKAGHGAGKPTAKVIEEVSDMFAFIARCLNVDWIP
Summary of the method: (§1)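 Enzyme per reaction: 50 ng DPP9, 20 ng DPP8, 10 ng each DPP7 and PREP. Compounds were serially diluted (8 points, up to 0.5% DMSO) and incubated at 25 °C.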

recombinant human DPP7 = target: T2, recombinant human DPP7 (Homo sapiens, UniProt Q9UHL4); assay: DPP7 inhibition, fluorogenic substrate Lys-Pro-AMC; conditions: recombinant human DPP7
T2 construct: purchased R&D Systems
Summary of the method: as §1

Recombinant human FAP = target: T3, Recombinant human FAP (Homo sapiens, UniProt Q12884); assay: FAP FRET assay, FGF21-sequence FRET peptide substrate; conditions: FRET peptide with human FGF21 sequence, 6 μM, 37° C.
T3 construct: purchased R&D systems
T3 sequence (Q12884 1-760): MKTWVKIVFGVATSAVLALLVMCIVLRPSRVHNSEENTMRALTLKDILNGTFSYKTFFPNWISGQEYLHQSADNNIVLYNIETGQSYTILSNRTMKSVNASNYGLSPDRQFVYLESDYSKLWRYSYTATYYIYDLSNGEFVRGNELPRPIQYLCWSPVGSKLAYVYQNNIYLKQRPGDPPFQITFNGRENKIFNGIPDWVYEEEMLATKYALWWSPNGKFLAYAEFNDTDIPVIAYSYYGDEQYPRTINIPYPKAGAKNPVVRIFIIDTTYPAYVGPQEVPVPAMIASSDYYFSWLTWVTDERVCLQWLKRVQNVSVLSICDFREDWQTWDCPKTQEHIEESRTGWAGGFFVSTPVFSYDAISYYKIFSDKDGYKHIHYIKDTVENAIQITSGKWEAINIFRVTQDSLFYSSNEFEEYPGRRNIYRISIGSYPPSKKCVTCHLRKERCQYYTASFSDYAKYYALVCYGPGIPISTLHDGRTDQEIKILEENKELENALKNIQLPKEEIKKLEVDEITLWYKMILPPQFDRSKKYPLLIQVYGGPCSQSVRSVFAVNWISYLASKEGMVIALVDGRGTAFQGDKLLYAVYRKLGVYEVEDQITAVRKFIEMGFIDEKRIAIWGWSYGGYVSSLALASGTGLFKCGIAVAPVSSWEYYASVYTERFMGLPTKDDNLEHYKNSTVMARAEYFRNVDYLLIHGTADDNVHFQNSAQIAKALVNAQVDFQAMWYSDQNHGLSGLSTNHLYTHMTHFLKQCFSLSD
Summary of the method: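 Recombinant human FAP, 10 ng per reaction, in 50 mM HEPES pH 7.2 with 150 mM NaCl, 0.1 mg/ml BSA, 1 mM EDTA; HyLite Fluor 488/QXL 520 FRET peptide of human FGF21 sequence at 6 μM final, ≤0.1% DMSO, 37° C. IC50 from 8-point curves by four-parameter logistic fit.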

recombinant human DPP8 = target: T4, recombinant human DPP8 (Homo sapiens, UniProt Q6V1X1); assay: DPP8 inhibition, fluorogenic substrate Z-Ala-Pro-AMC; conditions: recombinant human DPP8
T4 construct: purchased PBS Bioscience
T4 sequence (Q6V1X1 whole entry): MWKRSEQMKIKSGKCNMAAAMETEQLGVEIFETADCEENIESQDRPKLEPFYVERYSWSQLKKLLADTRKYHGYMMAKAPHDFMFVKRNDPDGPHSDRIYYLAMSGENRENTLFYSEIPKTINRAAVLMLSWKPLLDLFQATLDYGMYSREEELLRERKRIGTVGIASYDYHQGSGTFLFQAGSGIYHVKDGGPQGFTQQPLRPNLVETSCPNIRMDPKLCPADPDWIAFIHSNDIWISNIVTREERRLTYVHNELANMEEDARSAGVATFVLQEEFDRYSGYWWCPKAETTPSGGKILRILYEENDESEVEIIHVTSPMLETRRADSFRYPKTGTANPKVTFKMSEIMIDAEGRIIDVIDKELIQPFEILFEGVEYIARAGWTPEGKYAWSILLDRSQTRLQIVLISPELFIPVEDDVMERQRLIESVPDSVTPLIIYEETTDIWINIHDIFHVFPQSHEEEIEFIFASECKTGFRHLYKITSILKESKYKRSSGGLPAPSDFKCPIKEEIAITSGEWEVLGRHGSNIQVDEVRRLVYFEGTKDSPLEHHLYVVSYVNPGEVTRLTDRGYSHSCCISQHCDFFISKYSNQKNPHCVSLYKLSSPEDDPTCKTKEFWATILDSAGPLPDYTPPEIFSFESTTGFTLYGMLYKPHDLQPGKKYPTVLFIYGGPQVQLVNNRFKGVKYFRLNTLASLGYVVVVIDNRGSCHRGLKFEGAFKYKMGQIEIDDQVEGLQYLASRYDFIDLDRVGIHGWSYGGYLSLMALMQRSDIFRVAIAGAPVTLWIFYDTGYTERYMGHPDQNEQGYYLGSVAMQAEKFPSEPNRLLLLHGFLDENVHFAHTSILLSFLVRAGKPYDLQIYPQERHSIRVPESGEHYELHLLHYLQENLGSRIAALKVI
Summary of the method: as §1

DPP4 = DPP4 (Homo sapiens, UniProt P27487); assay: DPP4 inhibition, fluorogenic substrate H-Gly-Pro-AMC; design: purchased R&D Systems; conditions: recombinant human DPP4
Sequence of DPP4 (P27487 whole entry): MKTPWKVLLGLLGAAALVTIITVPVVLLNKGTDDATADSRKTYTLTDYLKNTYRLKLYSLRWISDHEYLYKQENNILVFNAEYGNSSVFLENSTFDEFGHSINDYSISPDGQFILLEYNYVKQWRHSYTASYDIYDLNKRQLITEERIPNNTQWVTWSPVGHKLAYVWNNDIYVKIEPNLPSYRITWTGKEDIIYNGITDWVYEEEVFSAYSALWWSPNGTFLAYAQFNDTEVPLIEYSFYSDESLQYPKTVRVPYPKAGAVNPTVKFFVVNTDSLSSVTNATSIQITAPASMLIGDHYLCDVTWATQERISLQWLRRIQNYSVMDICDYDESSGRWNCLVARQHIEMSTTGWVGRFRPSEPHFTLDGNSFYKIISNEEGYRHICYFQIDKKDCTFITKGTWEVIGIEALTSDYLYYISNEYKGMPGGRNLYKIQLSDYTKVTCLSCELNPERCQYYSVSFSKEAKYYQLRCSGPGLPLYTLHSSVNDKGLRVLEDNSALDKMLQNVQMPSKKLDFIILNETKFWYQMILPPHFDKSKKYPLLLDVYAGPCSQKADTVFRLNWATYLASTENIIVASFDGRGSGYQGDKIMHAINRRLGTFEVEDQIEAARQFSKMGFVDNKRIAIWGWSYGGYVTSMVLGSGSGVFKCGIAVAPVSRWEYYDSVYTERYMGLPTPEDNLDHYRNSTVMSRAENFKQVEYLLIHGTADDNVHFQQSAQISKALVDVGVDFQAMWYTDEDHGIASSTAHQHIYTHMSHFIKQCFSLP

recombinant human DPP9 = target: T5, recombinant human DPP9 (Homo sapiens, UniProt Q86TI2); assay: DPP9 inhibition, fluorogenic substrate H-Gly-Pro-AMC; conditions: recombinant human DPP9
T5 construct: purchased R&D Systems
T5 sequence (Q86TI2 whole entry): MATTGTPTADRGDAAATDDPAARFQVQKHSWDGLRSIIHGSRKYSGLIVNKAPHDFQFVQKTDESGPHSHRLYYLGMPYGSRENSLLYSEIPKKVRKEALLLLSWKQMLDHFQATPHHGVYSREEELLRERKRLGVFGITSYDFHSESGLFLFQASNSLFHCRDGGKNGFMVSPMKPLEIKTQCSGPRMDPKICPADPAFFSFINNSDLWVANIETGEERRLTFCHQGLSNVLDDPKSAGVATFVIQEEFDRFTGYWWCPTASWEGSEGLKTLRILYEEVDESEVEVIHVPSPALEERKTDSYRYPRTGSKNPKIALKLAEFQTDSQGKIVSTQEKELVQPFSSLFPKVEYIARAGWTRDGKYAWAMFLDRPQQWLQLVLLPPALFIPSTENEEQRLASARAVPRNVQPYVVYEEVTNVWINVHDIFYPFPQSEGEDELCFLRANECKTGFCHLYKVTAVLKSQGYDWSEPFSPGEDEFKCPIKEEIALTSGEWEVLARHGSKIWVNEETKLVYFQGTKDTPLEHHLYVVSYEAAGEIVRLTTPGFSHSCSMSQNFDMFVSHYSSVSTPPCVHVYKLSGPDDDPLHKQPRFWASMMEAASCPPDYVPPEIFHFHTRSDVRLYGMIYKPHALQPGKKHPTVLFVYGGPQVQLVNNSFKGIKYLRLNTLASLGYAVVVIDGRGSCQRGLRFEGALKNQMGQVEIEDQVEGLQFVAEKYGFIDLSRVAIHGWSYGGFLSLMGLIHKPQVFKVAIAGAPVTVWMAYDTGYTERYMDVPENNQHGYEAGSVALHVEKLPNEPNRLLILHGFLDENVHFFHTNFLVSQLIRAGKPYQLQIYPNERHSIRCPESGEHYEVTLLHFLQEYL
Summary of the method: as §1

SMILES: CN(c1ccc(C(F)(F)F)c2ncccc12)[C@H]1CCN(CC(=O)N2C[C@@H](F)C[C@H]2C#N)C1 [Example 159, (2S,4S)-4-fluoro-1-[2-[(3S)-3-[methyl-[8-(trifluoromethyl)-5-quinolyl]amino]pyrrolidin-1-yl]acetyl]pyrrolidine-2-carbonitrile]
- IC50 (recombinant human PREP): 430 nM
- IC50 (recombinant human DPP7): 61 nM
- IC50 (Recombinant human FAP): 6.7 nM
- IC50 (recombinant human DPP8): 7590 nM
- IC50 (DPP4): 1860 nM
- IC50 (recombinant human DPP9): 3700 nM

SMILES: N#C[C@@H]1C[C@H](F)CN1C(=O)CN1CC[C@@H](Nc2cccc3ncc(F)cc23)C1 [Example 184, (2S,4S)-4-fluoro-1-[2-[(3R)-3-[(3-fluoro-5-quinolyl)amino]pyrrolidin-1-yl]acetyl]pyrrolidine-2-carbonitrile]
- IC50 (recombinant human PREP): 3150 nM
- IC50 (recombinant human DPP7): 2760 nM
- IC50 (Recombinant human FAP): 3.2 nM
- IC50 (recombinant human DPP8): 2430 nM
- IC50 (DPP4): 1290 nM
- IC50 (recombinant human DPP9): 5150 nM

SMILES: N#C[C@@H]1CCCN1C(=O)CN1CC[C@@H](Nc2ccc(F)c3ncccc23)C1 [Example 199, (2S)-1-[2-[(3R)-3-[(8-fluoro-5-quinolyl)amino]pyrrolidin-1-yl]acetyl]pyrrolidine-2-carbonitrile]
- IC50 (recombinant human PREP): 7250 nM
- IC50 (recombinant human DPP7): 8010 nM
- IC50 (Recombinant human FAP): 2.3 nM
- IC50 (recombinant human DPP8): 8230 nM
- IC50 (DPP4): 2620 nM
- IC50 (recombinant human DPP9): 10900 nM

SMILES: N#C[C@@H]1CCCN1C(=O)CN1CC[C@@H](Nc2ccc(OC(F)(F)F)c3ncccc23)C1 [Example 202, (2S)-1-[2-[(3R)-3-[[8-(trifluoromethoxy)-5-quinolyl]amino]pyrrolidin-1-yl]acetyl]pyrrolidine-2-carbonitrile]
- IC50 (recombinant human PREP): 8080 nM
- IC50 (recombinant human DPP7): 6810 nM
- IC50 (Recombinant human FAP): 2.3 nM
- IC50 (recombinant human DPP8): 14200 nM
- IC50 (DPP4): 12100 nM
- IC50 (recombinant human DPP9): 13100 nM

SMILES: CNC(=O)c1ccc(N[C@H]2CCN(CC(=O)N3C[C@@H](F)C[C@H]3C#N)C2)c2cccnc12 [Example 281, N-methyl-5-[[(3S)-1-[2-oxo-2-[(2S,4S)-2-cyano-4-fluoro-pyrrolidin-1-yl]ethyl]pyrrolidin-3-yl]amino]quinoline-8-carboxamide]
- IC50 (recombinant human PREP): 2450 nM
- IC50 (recombinant human DPP7): 1130 nM
- IC50 (Recombinant human FAP): 3.4 nM
- IC50 (recombinant human DPP8): 4450 nM
- IC50 (DPP4): 2750 nM
- IC50 (recombinant human DPP9): 2600 nM

SMILES: CNC(=O)c1ccc(N[C@H]2CCN(CC(=O)N3CCC[C@H]3C#N)C2)c2cccnc12 [Example 286, N-methyl-5-[[(3S)-1-[2-oxo-2-[(2S)-2-cyanopyrrolidin-1-yl]ethyl]pyrrolidin-3-yl]amino]quinoline-8-carboxamide]
- IC50 (recombinant human PREP): 6300 nM
- IC50 (recombinant human DPP7): 3100 nM
- IC50 (Recombinant human FAP): 9.3 nM
- IC50 (recombinant human DPP8): 19800 nM
- IC50 (DPP4): 10900 nM
- IC50 (recombinant human DPP9): 32200 nM

SMILES: N#C[C@@H]1CCCN1C(=O)CN1CCC(Nc2ccc(C(=O)Nc3ccccn3)c3ncccc23)CC1 [Example 399, 5-[[1-[2-oxo-2-[(2S)-2-cyanopyrrolidin-1-yl]ethyl]-4-piperidyl]amino]-N-(2-pyridyl)quinoline-8-carboxamide]
- IC50 (recombinant human PREP): 627 nM
- IC50 (recombinant human DPP7): 1010 nM
- IC50 (Recombinant human FAP): 1.5 nM
- IC50 (recombinant human DPP8): 1200 nM
- IC50 (DPP4): 17400 nM
- IC50 (recombinant human DPP9): 3330 nM

SMILES: N#C[C@@H]1CCCN1C(=O)CN1CCC(Nc2ccc(C(=O)Nc3cccnc3)c3ncccc23)CC1 [Example 400, 5-[[1-[2-oxo-2-[(2S)-2-cyanopyrrolidin-1-yl]ethyl]-4-piperidyl]amino]-N-(3-pyridyl)quinoline-8-carboxamide]
- IC50 (recombinant human PREP): 1960 nM
- IC50 (recombinant human DPP7): 961 nM
- IC50 (Recombinant human FAP): 2.3 nM
- IC50 (recombinant human DPP8): 971 nM
- IC50 (DPP4): 17400 nM
- IC50 (recombinant human DPP9): 2010 nM

SMILES: N#C[C@@H]1CCCN1C(=O)CN1CCC(Nc2ccc(C(=O)Nc3ccncc3)c3ncccc23)CC1 [Example 401, 5-[[1-[2-oxo-2-[(2S)-2-cyanopyrrolidin-1-yl]ethyl]-4-piperidyl]amino]-N-(4-pyridyl)quinoline-8-carboxamide]
- IC50 (recombinant human PREP): 1200 nM
- IC50 (recombinant human DPP7): 775 nM
- IC50 (Recombinant human FAP): 5.9 nM
- IC50 (recombinant human DPP8): 266 nM
- IC50 (DPP4): 15200 nM
- IC50 (recombinant human DPP9): 1610 nM

SMILES: N#C[C@@H]1CCCN1C(=O)CN1CCC(Nc2ccc(C(=O)Nc3ncccn3)c3ncccc23)CC1 [Example 402, 5-[[1-[2-oxo-2-[(2S)-2-cyanopyrrolidin-1-yl]ethyl]-4-piperidyl]amino]-N-pyrimidin-2-yl-quinoline-8-carboxamide]
- IC50 (recombinant human PREP): 359 nM
- IC50 (recombinant human DPP7): 1160 nM
- IC50 (Recombinant human FAP): 3.7 nM
- IC50 (recombinant human DPP8): 1520 nM
- IC50 (DPP4): 12400 nM
- IC50 (recombinant human DPP9): 7830 nM

SMILES: N#C[C@@H]1C[C@H](F)CN1C(=O)CN1CCC(Nc2ccc(C(=O)Nc3ncccn3)c3ncccc23)CC1 [Example 403, 5-[[1-[2-oxo-2-[(2S,4S)-2-cyano-4-fluoro-pyrrolidin-1-yl]ethyl]-4-piperidyl]amino]-N-pyrimidin-2-yl-quinoline-8-carboxamide]
- IC50 (recombinant human PREP): 60.2 nM
- IC50 (recombinant human DPP7): 405 nM
- IC50 (Recombinant human FAP): 1.8 nM
- IC50 (recombinant human DPP8): 251 nM
- IC50 (DPP4): 2080 nM
- IC50 (recombinant human DPP9): 558 nM

SMILES: N#C[C@@H]1C[C@H](F)CN1C(=O)CN1CCC(Nc2ccc(C(=O)Nc3ccccn3)c3ncccc23)CC1 [Example 404, 5-[[1-[2-oxo-2-[(2S,4S)-2-cyano-4-fluoro-pyrrolidin-1-yl]ethyl]-4-piperidyl]amino]-N-(2-pyridyl)quinoline-8-carboxamide]
- IC50 (recombinant human PREP): 78.3 nM
- IC50 (recombinant human DPP7): 634 nM
- IC50 (Recombinant human FAP): 1.8 nM
- IC50 (recombinant human DPP8): 596 nM
- IC50 (DPP4): 4730 nM
- IC50 (recombinant human DPP9): 682 nM

SMILES: N#C[C@@H]1C[C@H](F)CN1C(=O)CN1CCC(Nc2ccc(C(=O)Nc3cccnc3)c3ncccc23)CC1 [Example 405, 5-[[1-[2-oxo-2-[(2S,4S)-2-cyano-4-fluoro-pyrrolidin-1-yl]ethyl]-4-piperidyl]amino]-N-(3-pyridyl)quinoline-8-carboxamide]
- IC50 (recombinant human PREP): 597 nM
- IC50 (recombinant human DPP7): 392 nM
- IC50 (Recombinant human FAP): 1.9 nM
- IC50 (recombinant human DPP8): 66.7 nM
- IC50 (DPP4): 2160 nM
- IC50 (recombinant human DPP9): 398 nM

SMILES: N#C[C@@H]1C[C@H](F)CN1C(=O)CN1CCC(Nc2ccc(C(=O)Nc3ccncc3)c3ncccc23)CC1 [Example 406, 5-[[1-[2-oxo-2-[(2S,4S)-2-cyano-4-fluoro-pyrrolidin-1-yl]ethyl]-4-piperidyl]amino]-N-(4-pyridyl)quinoline-8-carboxamide]
- IC50 (recombinant human PREP): 535 nM
- IC50 (recombinant human DPP7): 402 nM
- IC50 (Recombinant human FAP): 4.2 nM
- IC50 (recombinant human DPP8): 23.3 nM
- IC50 (DPP4): 2700 nM
- IC50 (recombinant human DPP9): 218 nM

SMILES: N#C[C@@H]1C[C@H](F)CN1C(=O)CN1CCC(Nc2ccc(C(=O)Nc3ccon3)c3ncccc23)CC1 [Example 407, N-isoxazol-3-yl-5-[[1-[2-oxo-2-[(2S,4S)-2-cyano-4-fluoro-pyrrolidin-1-yl]ethyl]-4-piperidyl]amino]quinoline-8-carboxamide]
- IC50 (recombinant human PREP): < 30 nM
- IC50 (recombinant human DPP7): 395 nM
- IC50 (Recombinant human FAP): 3.4 nM
- IC50 (recombinant human DPP8): 314 nM
- IC50 (DPP4): 1820 nM
- IC50 (recombinant human DPP9): 756 nM

SMILES: N#C[C@@H]1CCCN1C(=O)CN1CCC(Oc2ccnc3ccc(F)cc23)CC1 [Example 427, (2S)-1-[2-[4-[(6-fluoro-4-quinolyl)oxy]-1-piperidyl]acetyl]pyrrolidine-2-carbonitrile]
- IC50 (recombinant human PREP): 5010 nM
- IC50 (recombinant human DPP7): 15800 nM
- IC50 (Recombinant human FAP): 5.6 nM
- IC50 (recombinant human DPP8): 36600 nM
- IC50 (DPP4): 37200 nM
- IC50 (recombinant human DPP9): ≥ 100000 nM
